Experimental data taken from patent US20110294778A1, “HEPATITIS C INHIBITOR COMPOUNDS” (priority 2009, published 2011).
Like-named read-outs stand apart in the source and are kept apart here.

Tests used:
[1] = tested on: HCV genotype 1a (strain H77) subgenomic replicon with NS3 resistance mutation R155K in Huh-7 cells; assay: HCV replicon RNA replication assay (NS3 protease variants), genotype 1a R155K; assay type: cell-based; conditions: Hepatitis C virus
[2] = tested on: HCV genotype 1b (Con-1) subgenomic replicon with NS3 resistance mutation D168V in Huh-7 cells; assay: HCV replicon RNA replication assay (NS3 protease variants), genotype 1b D168V; assay type: cell-based; conditions: Hepatitis C virus
[3] = Huh-7, 72 h, read-out: R155K 1a EC50 (nM)
[4] = Huh-7, 72 h, read-out: D168V 1b EC50 (nM)

Row | SMILES | EC50 ([1]; Huh-7, read-out: R155K 1a Ec50 (nM)) | EC50 ([2]; Huh-7, read-out: D168V 1b Ec50 (nM)) | EC50 [1, 3] | EC50 [2, 4]
1 | COc1ccc2c(C[C@H]3CC4C(=O)N(C)CCCC/C=C\[C@H]5C[C@]5(C(=O)NS(=O)(=O)C5CC5)NC(=O)[C@@H]4C3)cc(-c3nc(C(C)C)cs3)nc2c1C (stereo partly shown) [reference compound] | 300 nM | 4400 nM | – | –
2 | COc1ccc2c(O[C@@H]3C[C@H]4C(=O)N[C@]5(C(=O)NS(=O)(=O)C6(C)CC6)C[C@H]5/C=C\CCCCC[C@H](NC(=O)c5ccn(C)n5)C(=O)N4C3)cc(OC3CC3)nc2c1C [Compound 1028, (2R,6S,12Z,13aS,14aR,16aS)-2-{[2-(cyclopropyloxy)-7-methoxy-8-methylquinolin-4-yl]oxy}-N-[(1-methylcyclopropyl)sulfonyl]-6-{[(1-methyl-1H-pyrazol-3-yl)carbonyl]amino}-5,16-dioxo-1,2,3,6,7,8,9,10,11,13a,14,15,16,16a-tetradecahydrocyclopropa[e]pyrrolo[1,2-a][1,4]diazacyclopentadecine-14a(5H)-carboxamide] | – | – | 3.7 nM | 0.37 nM
3 | CC(C)Oc1cc(O[C@@H]2C[C@H]3C(=O)N[C@]4(C(=O)NS(=O)(=O)C5(C)CC5)C[C@H]4/C=C\CCCCC[C@H](NC(=O)c4ccn(C)n4)C(=O)N3C2)c2ccc(F)c(F)c2n1 [Compound 1008, (2R,6S,12Z,13aS,14aR,16aS)-2-{[7,8-difluoro-2-(propan-2-yloxy)quinolin-4-yl]oxy}-N-[(1-methylcyclopropyl)sulfonyl]-6-{[(1-methyl-1H-pyrazol-3-yl)carbonyl]amino}-5,16-dioxo-1,2,3,6,7,8,9,10,11,13a,14,15,16,16a-tetradecahydrocyclopropa[e]pyrrolo[1,2-a][1,4]diazacyclopentadecine-14a(5H)-carboxamide] | – | – | 2.9 nM | 0.35 nM
4 | CCOc1cc(O[C@@H]2C[C@H]3C(=O)N[C@]4(C(=O)NS(=O)(=O)C5(C)CC5)C[C@H]4/C=C\CCCCC[C@H](NC(=O)N4CC(F)C4)C(=O)N3C2)c2ccc(OC)c(C)c2n1 [Compound 2014, (2R,6S,12Z,13aS,14aR,16aS)-2-[(2-ethoxy-7-methoxy-8-methylquinolin-4-yl)oxy]-6-{[(3-fluoroazetidin-1-yl)carbonyl]amino}-N-[(1-methylcyclopropyl)sulfonyl]-5,16-dioxo-1,2,3,6,7,8,9,10,11,13a,14,15,16,16a-tetradecahydrocyclopropa[e]pyrrolo[1,2-a][1,4]diazacyclopentadecine-14a(5H)-carboxamide] | – | – | 8.4 nM | 0.53 nM
5 | COc1ccc2c(O[C@@H]3C[C@H]4C(=O)N[C@]5(C(=O)NS(=O)(=O)C6CC6)C[C@H]5/C=C\CCCCC[C@H](NC(=O)c5cc[nH]n5)C(=O)N4C3)cc(OC(C)C)nc2c1C [Compound 1016, (2R,6S,12Z,13aS,14aR,16aS)-N-(cyclopropylsulfonyl)-2-{[7-methoxy-8-methyl-2-(propan-2-yloxy)quinolin-4-yl]oxy}-5,16-dioxo-6-[(1H-pyrazol-3-ylcarbonyl)amino]-1,2,3,6,7,8,9,10,11,13a,14,15,16,16a-tetradecahydrocyclopropa[e]pyrrolo[1,2-a][1,4]diazacyclopentadecine-14a(5H)-carboxamide] | – | – | – | 0.92 nM
6 | COc1ccc2c(O[C@@H]3C[C@H]4C(=O)N[C@]5(C(=O)NS(=O)(=O)C6CC6)C[C@H]5/C=C\CCCCC[C@H](NC(=O)c5ccc(C)s5)C(=O)N4C3)cc(OC(C)C)nc2c1C [Compound 1007, (2R,6S,12Z,13aS,14aR,16aS)-N-(cyclopropylsulfonyl)-2-{[7-methoxy-8-methyl-2-(propan-2-yloxy)quinolin-4-yl]oxy}-6-{[(5-methylthiophen-2-yl)carbonyl]amino}-5,16-dioxo-1,2,3,6,7,8,9,10,11,13a,14,15,16,16a-tetradecahydrocyclopropa[e]pyrrolo[1,2-a][1,4]diazacyclopentadecine-14a(5H)-carboxamide] | – | – | – | 0.25 nM
